Earlier results as cited in patent publication US10610500B2, “Chemosensory receptor ligand-based therapies” (Anji Pharma (US) LLC, priority 2011, dated 2020).

Biological target: T1, sweet receptor (Homo sapiens, UniProt Q7RTX0+Q8TE23)
T1 sequence (Q8TE23 20-839): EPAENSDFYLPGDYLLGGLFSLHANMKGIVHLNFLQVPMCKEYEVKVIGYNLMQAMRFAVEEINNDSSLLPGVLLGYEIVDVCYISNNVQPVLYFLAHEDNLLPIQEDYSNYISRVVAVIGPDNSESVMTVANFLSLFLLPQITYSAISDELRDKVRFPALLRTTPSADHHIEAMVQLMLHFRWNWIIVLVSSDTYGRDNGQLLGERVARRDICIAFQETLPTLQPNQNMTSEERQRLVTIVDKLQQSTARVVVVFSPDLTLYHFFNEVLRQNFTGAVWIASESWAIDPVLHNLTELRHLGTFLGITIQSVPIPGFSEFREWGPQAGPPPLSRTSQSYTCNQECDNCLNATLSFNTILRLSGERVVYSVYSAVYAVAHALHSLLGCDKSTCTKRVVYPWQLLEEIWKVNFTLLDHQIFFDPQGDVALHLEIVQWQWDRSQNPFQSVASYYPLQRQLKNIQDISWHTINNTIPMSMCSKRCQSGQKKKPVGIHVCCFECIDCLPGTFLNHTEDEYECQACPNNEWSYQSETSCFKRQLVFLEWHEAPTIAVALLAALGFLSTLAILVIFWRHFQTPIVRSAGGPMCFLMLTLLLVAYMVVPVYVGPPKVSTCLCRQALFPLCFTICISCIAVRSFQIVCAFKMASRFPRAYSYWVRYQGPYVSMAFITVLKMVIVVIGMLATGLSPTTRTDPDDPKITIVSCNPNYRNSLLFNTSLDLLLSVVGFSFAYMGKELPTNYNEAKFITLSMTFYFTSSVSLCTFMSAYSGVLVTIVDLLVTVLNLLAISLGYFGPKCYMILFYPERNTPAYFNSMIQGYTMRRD
T1 sequence (Q7RTX0 21-852): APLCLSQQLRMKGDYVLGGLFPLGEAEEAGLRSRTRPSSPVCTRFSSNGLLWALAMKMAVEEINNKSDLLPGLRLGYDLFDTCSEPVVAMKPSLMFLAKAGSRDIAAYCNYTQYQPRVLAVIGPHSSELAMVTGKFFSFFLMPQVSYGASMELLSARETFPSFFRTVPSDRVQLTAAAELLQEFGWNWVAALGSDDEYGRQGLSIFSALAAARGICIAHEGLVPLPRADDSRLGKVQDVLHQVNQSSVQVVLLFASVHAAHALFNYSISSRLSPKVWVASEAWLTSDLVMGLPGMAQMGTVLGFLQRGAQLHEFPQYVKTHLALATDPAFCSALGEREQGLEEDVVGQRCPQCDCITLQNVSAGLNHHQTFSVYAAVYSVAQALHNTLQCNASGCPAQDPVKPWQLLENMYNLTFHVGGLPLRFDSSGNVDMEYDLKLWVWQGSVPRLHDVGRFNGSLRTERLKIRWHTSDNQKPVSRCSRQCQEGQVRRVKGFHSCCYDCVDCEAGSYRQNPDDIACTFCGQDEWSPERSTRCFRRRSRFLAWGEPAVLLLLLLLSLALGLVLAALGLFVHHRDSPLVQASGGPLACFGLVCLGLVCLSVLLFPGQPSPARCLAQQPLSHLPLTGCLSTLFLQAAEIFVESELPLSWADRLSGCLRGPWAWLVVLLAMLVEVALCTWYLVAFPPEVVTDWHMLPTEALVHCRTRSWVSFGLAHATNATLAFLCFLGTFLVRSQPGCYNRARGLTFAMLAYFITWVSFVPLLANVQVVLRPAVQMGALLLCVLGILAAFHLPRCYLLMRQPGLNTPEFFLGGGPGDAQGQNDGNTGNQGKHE
Conditions: relative sweetness on a weight comparison basis to sucrose (=1.0); ranges: relative sweetness varied with the concentration of sucrose

Sweetness/potency | Compound
1,600 | Thaumatin
550 | Curculin
90 | CC1(C)[C@@H](O[C@@H]2O[C@H](C(=O)O)[C@@H](O)[C@H](O)[C@H]2O[C@@H]2O[C@H](C(=O)O)[C@@H](O)[C@H](O)[C@H]2O)CC[C@]2(C=O)[C@H]3CC[C@@H]4C5=C[C@@](C)(C(=O)O)CC[C@]5(C)CC[C@@]4(C)[C@]3(C)CC[C@@H]12 [Periandrin I]
210 | C=C1C[C@@]23CC[C@H]4[C@@](C)(CCC[C@@]4(C)C(=O)O[C@@H]4O[C@H](CO)[C@@H](O)[C@H](O)[C@H]4O)[C@@H]2CC[C@]1(O[C@@H]1O[C@H](CO)[C@@H](O)[C@H](O)[C@H]1O[C@@H]1O[C@H](CO)[C@@H](O)[C@H](O)[C@H]1O)C3 [Stevioside]
500 | Baiyunoside
600 | Polypodoside A
80 | CC(=O)O[C@H]1C(=O)c2c(O)cc(O)cc2O[C@@H]1c1ccc(O)c(O)c1 [(2R,3R)-Dihydroquercetin 3-O-acetate]
3,000 | Monellin
250 | Cyclocaryoside I
100 | COC(=O)[C@H]1O[C@@H](O[C@H]2[C@H](O[C@H]3CC[C@]45C[C@]46CC[C@]4(C)[C@@H]([C@H](C)[C@@H]7CC=C(C)C(=O)O7)CC[C@@]4(C)[C@@H]6CC[C@H]5[C@]3(C)C(=O)O)O[C@H](CO)[C@@H](O)[C@@H]2O)[C@H](O)[C@@H](O)[C@@H]1O [Abrusoside B]

Compound | Sweetness/potency
Oc1cc2c(cc1O)[C@@H]1c3ccc(O)c(O)c3OC[C@]1(O)C2 [Hematoxylin] | 120
COc1ccc(C2Oc3cc(O)cc(O)c3C(=O)C2OC(C)=O)cc1O (stereo not drawn) [Dihydroquercetin 3-O-acetate 4'-methyl ether] | 400
C=C(C)[C@@H]1CC=C(/C=N/O)CC1 [Perillartine] | 370

Tested on: L cells located in the gut
Conditions: administration of metformin

Compound | release of GLP-1 from the L cells
CN(C)C(=N)N=C(N)N [metformin] | increases

Tested on: gut hormones
Conditions: humans

Compound | gut hormones in the circulation
C=C1C[C@@]23CC[C@H]4[C@@](C)(CCC[C@@]4(C)C(=O)O[C@@H]4O[C@H](CO)[C@@H](O)[C@H](O)[C@H]4O)[C@@H]2CC[C@]1(O[C@@H]1O[C@H](CO)[C@@H](O)[C@H](O[C@@H]2O[C@H](CO)[C@@H](O)[C@H](O)[C@H]2O)[C@H]1O[C@@H]1O[C@H](CO)[C@@H](O)[C@H](O)[C@H]1O)C3 [Rebaudioside A] | no alterations
